According to article PMC7686313, “Phase 1 study of mTORC1/2 inhibitor sapanisertib (TAK-228) in advanced solid tumours, with an expansion phase in renal, endometrial or bladder cancer” (British Journal of Cancer, 2020):

Columns and labels:
[1] = tested on: renal cell carcinoma (RCC); assay: Tumour response according to RECIST v1.1, expansion phase, RCC; type: in vivo, human
Text: Patients could be considered for enrolment in one of three disease-specific cohorts: (1) advanced or recurrent endometrial adenocarcinoma with disease progression following ≥1 prior chemotherapy regimen; (2) advanced/metastatic urothelial cancer (carcinoma of the bladder, ureter and/or renal pelvis), progressive after ≥1 prior therapy in the metastatic/unresectable setting; (3) advanced RCC after failure of ≥1 prior antivascular endothelial growth factor therapy with no prior TORC1 inhibitor therapy, or progressed on treatment with TORC1 inhibitor therapy.

advanced solid tumours = assay: Tumour response according to RECIST v1.1, advanced solid tumours; type: in vivo, human; conditions: for Duration of partial response (PR): dose-escalation
Method: Patients who received ≥1 dose of sapanisertib were included in the safety population. The response-evaluable population included patients who received ≥1 dose of sapanisertib, had measurable disease at baseline, and had ≥1 postbaseline assessment. In the dose-escalation phase, the evaluable population included patients who received ≥75% of the planned sapanisertib doses in cycle 1 or experienced a DLT. Response was assessed according to the RECIST v1.1[24] after every two treatment cycles. Adverse events (AEs) were assessed using the National Cancer Institute Common Terminology Criteria for Adverse Events, v4.0. Patients were provided with a home blood-glucose meter to monitor their fasting predose blood-glucose measurements to assess hyperglycaemia as an on-target AE and PD marker.

[2] = expansion RCC TORC1 failure (n = 23)
[3] = expansion RCC TORC1 naïve (n = 18)
[4] = dose-escalation QD 2–7 mg (n = 21)
[5] = dose-escalation QD × 3d 6–20 mg (n = 27)
[6] = dose-escalation QD × 5d 7–13 mg (n = 18)
[7] = dose-escalation QW 7–40 mg (n = 25)

Q: With `CC(C)n1nc(-c2ccc3oc(N)nc3c2)c2c(N)ncnc21` [Sapanisertib] as the compound, how does the “Best overall response CR” value [1, 2] read?
A: The value was 0 n (%).

Q: What about the “Best overall response PD” value [1, 2] of the same compound?
A: The value was 7 (30) n (%).

Q: What about the “Best overall response PR” value [1, 2] of the same compound?
A: The value was 2 (9) n (%).

Q: And the “Best overall response SD < 6 months” value [1, 2]?
A: Its value is 9 (39) n (%).

Q: What about the “Best overall response SD ≥ 6 months” value [1, 2] of the same compound?
A: Its value is 5 (22) n (%).

Q: And the “CBR (CR + PR + SD ≥ 6 months)” value [1, 2]?
A: The value was 7 (30) n (%).

Q: And the “ORR (CR + PR)” value [1, 2]?
A: The value was 2 (9) n (%).

Q: What about the “Best overall response CR” value [1, 3] of the same compound?
A: Its value is 1 (6) n (%).

Q: And the “Best overall response PD” value [1, 3]?
A: Its value is 5 (28) n (%).

Q: What about the “Best overall response PR” value [1, 3] of the same compound?
A: Its value is 3 (17) n (%).

Q: What about the “Best overall response SD < 6 months” value [1, 3] of the same compound?
A: The value was 7 (39) n (%).

Q: What about the “Best overall response SD ≥ 6 months” value [1, 3] of the same compound?
A: The value was 1 (6) n (%).

Q: And the “CBR (CR + PR + SD ≥ 6 months)” value [1, 3]?
A: The value was 5 (28) n (%).

Q: What about the “ORR (CR + PR)” value [1, 3] of the same compound?
A: The value was 4 (22) n (%).

Q: What about the “Objective responses persisting for > 16 months” value ([1]; expansion phase) of the same compound?
A: The value was “Four of the seven”.

Q: What about the “Duration of complete response (CR)” value ([1]; expansion, one patient with TORC1 inhibitor−naïve RCC receiving 40 mg QW) of the same compound?
A: The value was 16 months.

Q: What about the “Patients achieving PR” value (advanced solid tumours; both phases) of the same compound?
A: Its value is “nine”.

Q: And the “Patients with CR” value (advanced solid tumours; both phases, 40 mg QW)?
A: Its value is “One”.

Q: And the “Best overall response CR” value (advanced solid tumours; [4])?
A: Its value is 0 n (%).

Q: What about the “Best overall response PD” value (advanced solid tumours; [4]) of the same compound?
A: Its value is 10 (48) n (%).

Q: And the “Best overall response PR” value (advanced solid tumours; [4])?
A: The value was 0 n (%).

Q: What about the “Best overall response SD < 6 months” value (advanced solid tumours; [4]) of the same compound?
A: The value was 9 (43) n (%).

Q: What about the “Best overall response SD ≥ 6 months” value (advanced solid tumours; [4]) of the same compound?
A: Its value is 2 (10) n (%).

Q: What about the “CBR (CR + PR + SD ≥ 6 months)” value (advanced solid tumours; [4]) of the same compound?
A: The value was 2 (10) n (%).

Q: What about the “ORR (CR + PR)” value (advanced solid tumours; [4]) of the same compound?
A: Its value is 0 n (%).

Q: What about the “Best overall response CR” value (advanced solid tumours; [5]) of the same compound?
A: The value was 0 n (%).

Q: And the “Best overall response PD” value (advanced solid tumours; [5])?
A: Its value is 14 (52) n (%).

Q: What about the “Best overall response PR” value (advanced solid tumours; [5]) of the same compound?
A: The value was 0 n (%).

Q: And the “Best overall response SD < 6 months” value (advanced solid tumours; [5])?
A: The value was 12 (44) n (%).

Q: What about the “Best overall response SD ≥ 6 months” value (advanced solid tumours; [5]) of the same compound?
A: Its value is 1 (4) n (%).

Q: And the “CBR (CR + PR + SD ≥ 6 months)” value (advanced solid tumours; [5])?
A: The value was 1 (4) n (%).

Q: What about the “ORR (CR + PR)” value (advanced solid tumours; [5]) of the same compound?
A: Its value is 0 n (%).

Q: What about the “Best overall response CR” value (advanced solid tumours; [6]) of the same compound?
A: Its value is 0 n (%).

Q: What about the “Best overall response PD” value (advanced solid tumours; [6]) of the same compound?
A: Its value is 12 (67) n (%).

Q: What about the “Best overall response PR” value (advanced solid tumours; [6]) of the same compound?
A: The value was 1 (6) n (%).

Q: What about the “Best overall response SD < 6 months” value (advanced solid tumours; [6]) of the same compound?
A: Its value is 4 (22) n (%).

Q: What about the “Best overall response SD ≥ 6 months” value (advanced solid tumours; [6]) of the same compound?
A: The value was 1 (6) n (%).

Q: What about the “CBR (CR + PR + SD ≥ 6 months)” value (advanced solid tumours; [6]) of the same compound?
A: The value was 2 (11) n (%).

Q: What about the “ORR (CR + PR)” value (advanced solid tumours; [6]) of the same compound?
A: The value was 1 (6) n (%).

Q: And the “Best overall response CR” value (advanced solid tumours; [7])?
A: Its value is 0 n (%).

Q: And the “Best overall response PD” value (advanced solid tumours; [7])?
A: Its value is 13 (52) n (%).

Q: And the “Best overall response PR” value (advanced solid tumours; [7])?
A: Its value is 2 (8) n (%).

Q: What about the “Best overall response SD < 6 months” value (advanced solid tumours; [7]) of the same compound?
A: Its value is 9 (36) n (%).

Q: What about the “Best overall response SD ≥ 6 months” value (advanced solid tumours; [7]) of the same compound?
A: Its value is 1 (4) n (%).

Q: And the “CBR (CR + PR + SD ≥ 6 months)” value (advanced solid tumours; [7])?
A: The value was 3 (12) n (%).

Q: And the “ORR (CR + PR)” value (advanced solid tumours; [7])?
A: Its value is 2 (8) n (%).

Q: What about the “Duration of partial response (PR)” value (advanced solid tumours; one patient with carcinoid tumour receiving 10 mg QD × 5dQW) of the same compound?
A: The value was over 32 months.

Q: And the “Duration of partial response (PR)” value (advanced solid tumours; two patients with RCC receiving 15 mg QW and 40 mg QW)?
A: The value was over 32 months.
